Experiment [1] deals with T1, α1 GlyR (Rattus norvegicus, UniProt P07727).
T1 construct: gene Glra1; homomeric α1, expressed in HEK 293 cells from pCI or pcDNA3; A52, I240, G254, S296, K385 (mature numbering); K385 fits the form without the 8-residue loop insert
T1 sequence (P07727 29-449 isoform P07727-2): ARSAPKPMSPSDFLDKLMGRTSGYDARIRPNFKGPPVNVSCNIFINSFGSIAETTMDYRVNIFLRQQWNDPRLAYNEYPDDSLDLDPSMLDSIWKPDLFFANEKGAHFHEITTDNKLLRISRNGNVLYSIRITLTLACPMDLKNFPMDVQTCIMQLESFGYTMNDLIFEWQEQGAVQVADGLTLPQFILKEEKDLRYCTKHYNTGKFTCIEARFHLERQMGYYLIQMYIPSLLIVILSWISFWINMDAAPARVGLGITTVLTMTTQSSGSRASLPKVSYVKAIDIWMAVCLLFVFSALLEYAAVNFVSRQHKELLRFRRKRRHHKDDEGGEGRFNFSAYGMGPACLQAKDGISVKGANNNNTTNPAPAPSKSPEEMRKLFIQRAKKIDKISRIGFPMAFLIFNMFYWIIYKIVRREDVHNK
The experiment can be described thus: whole-cell voltage clamp, modulation of glycine current. Conditions: positive allosteric modulator; glycine at EC10, co-applied; pH 7.4, 20-24 °C. It counts as cell-based.

For experiment [2], the target named is T2, α2 GlyR (Rattus norvegicus, UniProt P22771).
T2 construct: gene Glra2; homomeric α2, expressed in HEK 293 cells; T59, A261, A303 (T59 fits splice form alpha-2A)
T2 sequence (P22771 28-452): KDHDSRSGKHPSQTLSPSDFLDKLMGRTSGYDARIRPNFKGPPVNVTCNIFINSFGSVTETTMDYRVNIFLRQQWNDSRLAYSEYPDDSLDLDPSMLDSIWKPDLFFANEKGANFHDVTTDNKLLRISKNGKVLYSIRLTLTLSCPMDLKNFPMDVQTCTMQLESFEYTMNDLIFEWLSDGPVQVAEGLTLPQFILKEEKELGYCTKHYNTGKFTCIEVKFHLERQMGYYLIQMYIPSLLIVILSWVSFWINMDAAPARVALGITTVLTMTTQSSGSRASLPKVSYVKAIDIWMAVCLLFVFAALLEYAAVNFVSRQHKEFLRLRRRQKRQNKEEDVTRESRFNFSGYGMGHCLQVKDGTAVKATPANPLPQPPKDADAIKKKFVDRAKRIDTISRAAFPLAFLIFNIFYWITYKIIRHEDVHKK
Described as above. It is filed as cell-based. Conditions: allosteric inhibitor; glycine at EC10, co-applied; pH 7.4, 20-24 °C.

Experiment [3] deals with T2, α2 GlyR. Described as above. It is filed as cell-based. Conditions: positive allosteric modulator; glycine at EC10, co-applied; pH 7.4, 20-24 °C.
Experiment [4] concerns T3, α2α1.
T3 construct: gene Glra2; one fused subunit: α2 upstream of the TM3-4 loop (ECD to TM3), then α1 intracellular loop plus TM4; HEK 293
The experiment can be described thus: whole-cell voltage clamp, concentration-response. It is filed as cell-based, Rattus norvegicus. Conditions: agonist; pH 7.4, 20-24 °C, -60 mV. From the text:
whole-cell voltage clamp, concentration-response on α2α1

The test system of experiment [5] is T4, α1α2.
T4 construct: gene Glra1; one fused subunit: α1 upstream of the TM3-4 loop (ECD to TM3), then α2 intracellular loop plus TM4; HEK 293
Briefly: whole-cell voltage clamp, concentration-response. It is filed as cell-based, Rattus norvegicus. The note with it: agonist; pH 7.4, 20-24 °C, -60 mV. From the text:
whole-cell voltage clamp, concentration-response on α1α2

In experiment [6] the target is T2, α2 GlyR. The experiment can be described thus: whole-cell voltage clamp, concentration-response. It is filed as cell-based. The source says: (§1) whole-cell voltage clamp, concentration-response on α2 GlyR
For experiment [7], the target named is T5, α2 GlyR (Rattus norvegicus, UniProt P22771, A288G).
T5 construct: gene Glra2; homomeric α2, expressed in HEK 293 cells; T59, A261, A303 (T59 fits splice form alpha-2A)
T5 sequence (P22771 28-452 A288G): T2 sequence (P22771 28-452) with A261G
The experiment can be described thus: whole-cell voltage clamp, concentration-response. It is filed as cell-based.
From the text: as §1

Experiment [8] addresses T6, α2 GlyR (Rattus norvegicus, UniProt P22771, A288G/A330S/T86A).
T6 construct: gene Glra2; homomeric α2, expressed in HEK 293 cells; T59, A261, A303 (T59 fits splice form alpha-2A)
T6 sequence (P22771 28-452 T86A/A288G/A330S): T2 sequence (P22771 28-452) with T59A, A261G, A303S
Briefly: whole-cell voltage clamp, concentration-response. It is filed as cell-based.
From the text: as §1

Experiment [9] deals with T7, α2 GlyR (Rattus norvegicus, UniProt P22771, A288G/T86A).
T7 construct: gene Glra2; homomeric α2, expressed in HEK 293 cells; T59, A261, A303 (T59 fits splice form alpha-2A)
T7 sequence (P22771 28-452 T86A/A288G): T2 sequence (P22771 28-452) with T59A, A261G
Briefly: whole-cell voltage clamp, concentration-response. It counts as cell-based.
From the text: as §1

The target in experiment [10] is T8, α2 GlyR (Rattus norvegicus, UniProt P22771, T86A).
T8 construct: gene Glra2; homomeric α2, expressed in HEK 293 cells; T59, A261, A303 (T59 fits splice form alpha-2A)
T8 sequence (P22771 28-452 T86A): T2 sequence (P22771 28-452) with T59A
Briefly: whole-cell voltage clamp, concentration-response. It is filed as cell-based.
From the text: as §1

The record followed here is PMC3162021 (PLoS ONE, 2011).

Positions count from the first letter of the chain named.

In the case of `CCCCC/C=C\C/C=C\C/C=C\C/C=C\CCCC(=O)NCC(=O)O` [NA-Gly], the “% potentiation at 10 μM” value in experiment [1] is 101±11%. Also, the “% change of current at 10 μM” value in experiment [2] is −56±5%.

In the case of `CCCCC/C=C\C/C=C\C/C=C\C/C=C\CCCC(=O)NCCO` [AEA], the “% potentiation at 10 μM” value in experiment [1] is on record as “AEA, anandamide”; in experiment [3], “showed consistent positive allosteric modulation of all the GlyR isoforms”.

Take `NCC(=O)O` [glycine]: the EC50 – broadly, the midpoint of the concentration-response curve – in experiment [4] stood at 111 ± 1 µM; in experiment [5] it was 86 ± 3 µM; in experiment [6], 120 ± 6 µM; in experiment [7], 217 ± 6 µM; in experiment [8], 102 ± 2 µM; in experiment [9], 76 ± 2 µM. For the same molecule, the response in experiment [10] was half-maximal at 63 ± 1 µM (EC50).
